Holding throughout (format): cell-based
Experiment [1] deals with colon sub-panel. Kind of experiment: cells. The following applies: Homo sapiens, SW-620, read-out: mean LC50 in colon sub-panel. The procedure: (§1) Compounds were tested for in vitro activity (48 h drug exposure) across 60 human cancer cell lines through the National Cancer Institute (NCI) Developmental Therapies Screening Program (Boyd et al., 1995).
Experiment [2] relates to 60 human cancer cell lines. Kind of experiment: cells. How it is done: as §1
For experiment [3], the system named is renal sub-panel. Kind of experiment: cells. Conditions: Homo sapiens, 60 cell, read-out: mean LC50 in renal sub-panel. How it is done:
as §1

For experiment [4], the system named is cellular glutathione. Nature of the experiment: Cellular glutathione.
In experiment [5] the test system is MCF-7 (ER+) breast carcinoma. Kind of experiment: Growth inhibitory assay (MTT, 72 hr). The following applies: Homo sapiens, MCF7, 72 hr exposure. The procedure:
(§2) Compounds were prepared as 10 mM top stocks, dissolved in DMSO, and stored at 4° C., protected from light, for a maximum period of 4 weeks. Human derived cell lines (HCT 116, HT29 colon carcinoma; MCF-7 (ER+), MDA 468 (ER−) breast carcinoma; A549 lung adenocarcinoma) were routinely cultivated at 37° C. in an atmosphere of 5% CO2 in RPMI 1640 medium supplemented with 2 mM L-glutamine and 10% fetal calf serum and subcultured twice weekly to maintain continuous logarithmic growth. Cells were seeded into 96-well microtiter plates at a density of 5×10^3 per well and allowed 24 hr to adhere before drugs were introduced (final concentration 0.1 nM–100 μM, n=8). Serial drug dilutions were prepared in medium immediately prior to each assay. At the time of drug addition and following 72 hr exposure, MTT was added to each well (final concentration 400 µg/mL). Incubation at 37° C. for 4 hr allowed reduction of MTT by mitochondrial dehydrogenase to an insoluble formazan product. Well contents were aspirated and formazan solubilized by addition of DMSO:glycine buffer (pH 10.5) (4:1). Absorbance was measured using an Anthos Labtec systems plate reader at 550 nm, and used as a measure of cell viability; thus cell growth or drug toxicity was determined.

Experiment [6] deals with A549 lung adenocarcinoma. Nature of the experiment: Growth inhibitory assay (MTT, 72 hr). The following applies: Homo sapiens, 72 hr exposure. How it is done: as §2
Experiment [7] has as its system MDA 468 (ER−) breast carcinoma. Nature of the experiment: Growth inhibitory assay (MTT, 72 hr). The following applies: Homo sapiens, 72 hr exposure. How it is done:
as §2

The subject of experiment [8] is HCT 116 colon carcinoma. Nature of the experiment: Growth inhibitory assay (MTT, 72 hr). Conditions: Homo sapiens, 72 hr exposure. The procedure: as §2
Experiment [9] deals with HT29 colon carcinoma. Nature of the experiment: Growth inhibitory assay (MTT, 72 hr). The following applies: Homo sapiens, HT-29, 72 hr exposure. The procedure: as §2

A value given as a limit tells only on which side of the number the result lay.

For `O=C1C=CC(O)(c2nc3ccccc3s2)C=C1` [Q05, 4-(Benzothiazol-2-yl)-4-hydroxy-2,5-cyclohexadien-1-one], the LC50 in [1] was determined as 1.76 µM. In addition, the CC50 in experiment [2] (Homo sapiens, 60 cell, 48 h, read-out: mean LC50) came to 3.39 µM. Further, the GI50 in experiment [2] (Homo sapiens, 60 cell, Table 5) is 0.29 µM; in [2] (Homo sapiens, mean over NCI 60 cell panel, 48 h drug exposure), 0.23 µM. The “mean log10GI50” value in experiment [2] (NCI analysis) was −6.63. For the same compound, the log10LC50 in experiment [2] (NCI analysis, certain colon and renal cells lines) is on record as < −6.0. Besides, the mean LC50 in [3] came to 1.57 µM. Further, the “effect on cellular glutathione” value in experiment [4] is listed as “depletes cellular glutathione”. Besides, the IC50 came out at 0.35 µM in [5]; 2.35 µM in experiment [6]; 0.79 µM in experiment [7]; 0.04 µM in [8]; 0.38 µM in experiment [9].

Usually LC50 stands for the concentration lethal to half of the exposed cells or organisms. As a reminder, the GI50 is the concentration giving 50% growth inhibition. Lower therefore signals greater sensitivity of the cells. A word on the IC50: it is the concentration needed to halve the response being measured. Low readings indicate greater potency in that assay, high ones weaker potency in that assay.

For the origin of these results see patent publication US7144893B2, “4-aryl quinols and analogs thereof as therapeutic agents” (Cancer Research Technology Limited, priority 2001, dated 2006).
